Key:
Test in all cases: biochemical
[1] = target: T1, panel of 374 wild-type kinases (Homo sapiens, UniProt P78362); settings: read-out: % Enzyme Activity (relative to DMSO controls), kinase SRPK2
T1 construct: purchased Reaction Biology Corporation

[2] = target: T2, panel of 374 wild-type kinases (Homo sapiens, UniProt Q86YV6); settings: read-out: % Enzyme Activity (relative to DMSO controls), MYLK4
T2 construct: purchased Reaction Biology Corporation
T2 sequence (Q86YV6 1-388): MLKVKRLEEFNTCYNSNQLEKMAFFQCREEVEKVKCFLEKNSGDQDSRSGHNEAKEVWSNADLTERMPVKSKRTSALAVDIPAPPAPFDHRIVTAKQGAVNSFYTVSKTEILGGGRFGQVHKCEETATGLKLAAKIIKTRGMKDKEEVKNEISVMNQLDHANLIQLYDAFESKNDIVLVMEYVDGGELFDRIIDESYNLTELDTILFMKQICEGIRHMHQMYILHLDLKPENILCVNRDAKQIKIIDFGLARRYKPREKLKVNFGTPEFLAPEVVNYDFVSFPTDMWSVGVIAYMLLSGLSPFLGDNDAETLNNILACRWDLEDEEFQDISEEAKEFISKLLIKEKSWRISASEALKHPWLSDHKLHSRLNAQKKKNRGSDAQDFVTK

[3] = target: T3, panel of 374 wild-type kinases (Homo sapiens, UniProt Q12851); settings: read-out: % Enzyme Activity (relative to DMSO controls), GCK/MAP4K2
T3 construct: purchased Reaction Biology Corporation
T3 sequence (Q12851 1-820): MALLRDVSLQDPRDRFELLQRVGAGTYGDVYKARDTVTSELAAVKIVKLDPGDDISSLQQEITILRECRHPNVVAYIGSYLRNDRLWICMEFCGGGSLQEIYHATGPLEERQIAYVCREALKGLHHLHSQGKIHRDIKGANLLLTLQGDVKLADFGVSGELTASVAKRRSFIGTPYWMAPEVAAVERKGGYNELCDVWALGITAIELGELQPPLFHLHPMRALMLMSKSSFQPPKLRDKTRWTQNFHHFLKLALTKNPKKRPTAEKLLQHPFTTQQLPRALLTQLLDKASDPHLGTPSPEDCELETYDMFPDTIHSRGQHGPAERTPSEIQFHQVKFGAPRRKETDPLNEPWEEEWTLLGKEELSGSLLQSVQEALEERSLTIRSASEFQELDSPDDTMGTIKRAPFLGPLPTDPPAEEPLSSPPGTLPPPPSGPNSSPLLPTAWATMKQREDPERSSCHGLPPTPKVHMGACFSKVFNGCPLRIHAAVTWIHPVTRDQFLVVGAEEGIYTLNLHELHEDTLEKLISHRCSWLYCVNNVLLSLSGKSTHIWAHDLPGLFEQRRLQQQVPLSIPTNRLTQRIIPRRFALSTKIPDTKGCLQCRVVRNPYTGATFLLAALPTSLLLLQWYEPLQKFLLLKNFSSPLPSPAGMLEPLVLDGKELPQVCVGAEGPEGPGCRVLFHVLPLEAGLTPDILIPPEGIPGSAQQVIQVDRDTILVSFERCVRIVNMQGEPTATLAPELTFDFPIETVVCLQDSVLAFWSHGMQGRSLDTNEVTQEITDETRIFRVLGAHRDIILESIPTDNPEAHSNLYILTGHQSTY

[4] = target: T4, panel of 374 wild-type kinases (Homo sapiens, UniProt Q9Y5S2); settings: read-out: % Enzyme Activity (relative to DMSO controls), MRCKb/CDC42BPB
T4 construct: purchased Reaction Biology Corporation

[5] = target: T5, panel of 374 wild-type kinases (Homo sapiens, UniProt Q9Y463); settings: DYRK1B, read-out: % Enzyme Activity (relative to DMSO controls)
T5 construct: purchased Reaction Biology Corporation

[6] = target: T6, panel of 374 wild-type kinases (Homo sapiens, UniProt P42681); settings: read-out: % Enzyme Activity (relative to DMSO controls), kinase TXK
T6 construct: purchased Reaction Biology Corporation
T6 sequence (P42681 1-527): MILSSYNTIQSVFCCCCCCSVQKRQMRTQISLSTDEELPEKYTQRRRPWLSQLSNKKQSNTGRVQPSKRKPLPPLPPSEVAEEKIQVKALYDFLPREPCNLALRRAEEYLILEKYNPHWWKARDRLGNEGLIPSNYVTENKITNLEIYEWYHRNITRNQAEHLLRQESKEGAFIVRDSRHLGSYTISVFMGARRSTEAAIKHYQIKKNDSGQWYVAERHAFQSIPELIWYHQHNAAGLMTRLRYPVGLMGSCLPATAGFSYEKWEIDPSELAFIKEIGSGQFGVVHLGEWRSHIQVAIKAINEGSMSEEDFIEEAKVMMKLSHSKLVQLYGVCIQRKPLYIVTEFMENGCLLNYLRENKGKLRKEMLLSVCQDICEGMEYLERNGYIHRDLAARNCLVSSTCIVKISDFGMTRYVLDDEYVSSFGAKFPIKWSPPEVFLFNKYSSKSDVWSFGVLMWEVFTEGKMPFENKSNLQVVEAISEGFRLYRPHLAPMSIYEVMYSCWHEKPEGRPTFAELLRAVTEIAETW

[7] = target: T7, panel of 374 wild-type kinases (Homo sapiens, UniProt Q9P286); settings: read-out: % Enzyme Activity (relative to DMSO controls), kinase PAK5
T7 construct: purchased Reaction Biology Corporation

[8] = target: T8, panel of 374 wild-type kinases (Homo sapiens, UniProt P51812); settings: read-out: % Enzyme Activity (relative to DMSO controls), kinase RSK2
T8 construct: purchased Reaction Biology Corporation

[9] = target: T9, panel of 374 wild-type kinases (Homo sapiens, UniProt Q13043); settings: read-out: % Enzyme Activity (relative to DMSO controls), MST1/STK4
T9 construct: purchased Reaction Biology Corporation
T9 sequence (Q13043 1-487): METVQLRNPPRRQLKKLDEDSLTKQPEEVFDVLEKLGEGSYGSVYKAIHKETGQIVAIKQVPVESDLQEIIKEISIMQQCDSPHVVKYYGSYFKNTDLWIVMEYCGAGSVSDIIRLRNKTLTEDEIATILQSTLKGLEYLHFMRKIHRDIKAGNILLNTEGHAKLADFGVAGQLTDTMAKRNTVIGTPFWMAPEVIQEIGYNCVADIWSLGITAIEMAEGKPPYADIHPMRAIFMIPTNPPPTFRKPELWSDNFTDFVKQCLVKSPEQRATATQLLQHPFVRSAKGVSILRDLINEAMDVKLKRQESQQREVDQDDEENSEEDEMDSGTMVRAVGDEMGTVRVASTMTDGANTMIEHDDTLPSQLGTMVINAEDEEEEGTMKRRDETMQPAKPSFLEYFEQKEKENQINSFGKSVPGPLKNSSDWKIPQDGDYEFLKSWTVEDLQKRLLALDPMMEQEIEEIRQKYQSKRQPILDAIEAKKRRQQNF

T7 sequence (Q9P286 whole entry): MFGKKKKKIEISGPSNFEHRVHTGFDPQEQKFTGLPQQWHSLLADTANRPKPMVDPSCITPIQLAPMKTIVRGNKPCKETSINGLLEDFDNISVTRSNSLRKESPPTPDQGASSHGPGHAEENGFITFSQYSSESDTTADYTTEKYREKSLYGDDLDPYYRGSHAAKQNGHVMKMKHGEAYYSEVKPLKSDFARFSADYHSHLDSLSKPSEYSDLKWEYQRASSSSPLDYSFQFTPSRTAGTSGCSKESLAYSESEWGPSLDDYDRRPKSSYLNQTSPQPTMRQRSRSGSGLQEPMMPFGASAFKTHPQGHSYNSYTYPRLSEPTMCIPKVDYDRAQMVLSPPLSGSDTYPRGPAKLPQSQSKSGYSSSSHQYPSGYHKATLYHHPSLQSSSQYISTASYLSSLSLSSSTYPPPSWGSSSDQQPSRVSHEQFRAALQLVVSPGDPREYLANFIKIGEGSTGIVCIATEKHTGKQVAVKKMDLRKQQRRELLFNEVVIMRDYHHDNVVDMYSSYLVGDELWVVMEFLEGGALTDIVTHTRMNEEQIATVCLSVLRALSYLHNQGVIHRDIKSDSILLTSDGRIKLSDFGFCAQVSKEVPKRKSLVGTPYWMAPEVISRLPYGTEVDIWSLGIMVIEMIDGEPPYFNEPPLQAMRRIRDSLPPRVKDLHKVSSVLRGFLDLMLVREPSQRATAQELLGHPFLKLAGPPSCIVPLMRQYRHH
T5 sequence (Q9Y463 whole entry): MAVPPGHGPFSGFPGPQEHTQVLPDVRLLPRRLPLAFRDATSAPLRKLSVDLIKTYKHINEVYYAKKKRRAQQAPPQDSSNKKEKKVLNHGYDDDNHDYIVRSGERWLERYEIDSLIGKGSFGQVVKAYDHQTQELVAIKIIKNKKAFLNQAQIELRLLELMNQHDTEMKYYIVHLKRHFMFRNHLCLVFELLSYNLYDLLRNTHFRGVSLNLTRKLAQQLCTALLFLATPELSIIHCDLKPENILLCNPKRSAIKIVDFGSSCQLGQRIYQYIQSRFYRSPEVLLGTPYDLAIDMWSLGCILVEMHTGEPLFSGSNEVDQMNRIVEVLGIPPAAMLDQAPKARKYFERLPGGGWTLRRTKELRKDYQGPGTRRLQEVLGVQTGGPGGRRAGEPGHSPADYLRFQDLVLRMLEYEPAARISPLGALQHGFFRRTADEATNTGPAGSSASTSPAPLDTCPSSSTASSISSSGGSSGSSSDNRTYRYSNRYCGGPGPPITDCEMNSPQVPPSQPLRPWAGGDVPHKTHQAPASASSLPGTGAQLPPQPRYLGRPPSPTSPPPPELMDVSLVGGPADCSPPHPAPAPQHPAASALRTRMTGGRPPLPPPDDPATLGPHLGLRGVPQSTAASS
T8 sequence (P51812 whole entry): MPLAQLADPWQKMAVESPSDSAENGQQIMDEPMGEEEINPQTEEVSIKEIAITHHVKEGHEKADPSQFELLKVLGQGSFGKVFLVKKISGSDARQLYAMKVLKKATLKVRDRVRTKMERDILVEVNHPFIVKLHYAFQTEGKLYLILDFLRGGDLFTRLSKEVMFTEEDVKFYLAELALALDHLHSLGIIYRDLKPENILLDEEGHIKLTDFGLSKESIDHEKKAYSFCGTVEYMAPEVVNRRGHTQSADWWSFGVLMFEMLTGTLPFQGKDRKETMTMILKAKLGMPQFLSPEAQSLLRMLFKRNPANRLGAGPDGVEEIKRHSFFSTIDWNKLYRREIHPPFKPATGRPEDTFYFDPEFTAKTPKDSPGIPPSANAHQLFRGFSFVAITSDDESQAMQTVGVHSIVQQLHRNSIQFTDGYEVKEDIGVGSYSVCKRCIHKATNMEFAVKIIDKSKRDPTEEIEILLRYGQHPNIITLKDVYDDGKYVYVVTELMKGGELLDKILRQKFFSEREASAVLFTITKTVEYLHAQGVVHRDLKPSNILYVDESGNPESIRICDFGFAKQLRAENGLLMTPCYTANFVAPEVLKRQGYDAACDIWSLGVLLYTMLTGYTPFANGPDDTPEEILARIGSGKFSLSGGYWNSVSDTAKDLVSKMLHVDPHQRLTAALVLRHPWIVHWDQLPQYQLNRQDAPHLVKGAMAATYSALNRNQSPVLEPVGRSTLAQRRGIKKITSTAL
T4 sequence (Q9Y5S2 whole entry): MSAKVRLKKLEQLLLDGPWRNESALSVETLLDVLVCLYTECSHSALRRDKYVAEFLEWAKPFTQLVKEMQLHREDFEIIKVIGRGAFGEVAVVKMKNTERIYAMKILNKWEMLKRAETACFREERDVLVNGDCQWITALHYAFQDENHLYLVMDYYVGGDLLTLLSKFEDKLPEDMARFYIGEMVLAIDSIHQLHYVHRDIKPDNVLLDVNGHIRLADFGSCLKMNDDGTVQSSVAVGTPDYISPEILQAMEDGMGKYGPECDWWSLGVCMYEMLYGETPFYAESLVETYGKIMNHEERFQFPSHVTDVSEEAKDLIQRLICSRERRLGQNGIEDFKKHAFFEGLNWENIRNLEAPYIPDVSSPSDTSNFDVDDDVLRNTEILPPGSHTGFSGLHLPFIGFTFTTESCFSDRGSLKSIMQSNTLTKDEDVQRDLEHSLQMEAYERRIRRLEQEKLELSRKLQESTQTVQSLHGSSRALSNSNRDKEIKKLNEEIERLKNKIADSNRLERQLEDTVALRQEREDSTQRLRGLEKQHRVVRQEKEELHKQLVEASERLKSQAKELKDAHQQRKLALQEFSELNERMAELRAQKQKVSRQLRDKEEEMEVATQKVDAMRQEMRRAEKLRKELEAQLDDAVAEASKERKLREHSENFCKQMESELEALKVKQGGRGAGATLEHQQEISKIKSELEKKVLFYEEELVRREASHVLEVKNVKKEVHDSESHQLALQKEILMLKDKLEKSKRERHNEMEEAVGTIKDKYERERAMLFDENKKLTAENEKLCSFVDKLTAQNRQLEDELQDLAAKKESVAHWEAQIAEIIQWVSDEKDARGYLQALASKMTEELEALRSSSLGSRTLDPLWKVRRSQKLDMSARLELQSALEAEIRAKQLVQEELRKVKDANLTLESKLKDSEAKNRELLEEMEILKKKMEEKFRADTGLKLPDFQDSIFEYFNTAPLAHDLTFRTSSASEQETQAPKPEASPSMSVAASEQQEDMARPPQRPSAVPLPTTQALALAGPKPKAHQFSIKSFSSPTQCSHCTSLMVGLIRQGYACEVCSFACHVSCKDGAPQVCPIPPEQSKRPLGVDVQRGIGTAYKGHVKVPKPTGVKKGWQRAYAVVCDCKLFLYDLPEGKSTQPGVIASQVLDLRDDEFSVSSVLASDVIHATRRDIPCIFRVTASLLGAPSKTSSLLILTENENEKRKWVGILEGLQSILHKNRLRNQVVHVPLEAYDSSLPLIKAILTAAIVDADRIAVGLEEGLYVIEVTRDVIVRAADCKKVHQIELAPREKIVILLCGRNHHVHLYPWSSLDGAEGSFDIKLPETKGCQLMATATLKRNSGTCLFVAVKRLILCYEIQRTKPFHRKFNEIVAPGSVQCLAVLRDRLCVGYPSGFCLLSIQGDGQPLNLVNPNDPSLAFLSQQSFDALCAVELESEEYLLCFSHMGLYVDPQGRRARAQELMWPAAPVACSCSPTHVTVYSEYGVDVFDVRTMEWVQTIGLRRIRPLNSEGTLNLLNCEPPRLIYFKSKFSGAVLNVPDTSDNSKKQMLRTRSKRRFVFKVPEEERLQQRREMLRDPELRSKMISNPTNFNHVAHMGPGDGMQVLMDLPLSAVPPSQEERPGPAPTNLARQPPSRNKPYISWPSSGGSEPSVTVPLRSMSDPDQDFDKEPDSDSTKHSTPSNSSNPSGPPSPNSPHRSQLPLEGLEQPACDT
T1 sequence (P78362 whole entry): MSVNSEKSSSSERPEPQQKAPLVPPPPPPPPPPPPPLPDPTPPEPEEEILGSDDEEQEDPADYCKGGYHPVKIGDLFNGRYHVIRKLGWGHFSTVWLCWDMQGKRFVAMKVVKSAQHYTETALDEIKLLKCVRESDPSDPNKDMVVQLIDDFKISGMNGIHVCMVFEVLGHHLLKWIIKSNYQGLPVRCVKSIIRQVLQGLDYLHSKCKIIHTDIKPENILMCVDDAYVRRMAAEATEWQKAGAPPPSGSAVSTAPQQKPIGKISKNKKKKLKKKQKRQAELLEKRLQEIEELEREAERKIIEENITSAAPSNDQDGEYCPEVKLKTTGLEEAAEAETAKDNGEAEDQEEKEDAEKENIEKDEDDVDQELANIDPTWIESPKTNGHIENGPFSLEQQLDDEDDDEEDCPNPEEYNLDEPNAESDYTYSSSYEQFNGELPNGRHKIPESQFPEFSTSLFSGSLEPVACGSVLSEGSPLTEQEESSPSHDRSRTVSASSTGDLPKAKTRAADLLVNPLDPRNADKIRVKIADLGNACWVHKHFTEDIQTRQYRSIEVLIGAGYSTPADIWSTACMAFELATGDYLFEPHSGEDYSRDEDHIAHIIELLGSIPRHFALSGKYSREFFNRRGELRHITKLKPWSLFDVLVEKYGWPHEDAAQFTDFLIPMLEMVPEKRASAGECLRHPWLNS

SMILES	remaining activity at 5 µM [1] [%]	remaining activity at 5 µM [2] [%]	remaining activity at 5 µM [3] [%]	remaining activity at 5 µM [4] [%]	remaining activity at 5 µM [5] [%]	remaining activity at 5 µM [6] [%]	remaining activity at 5 µM [7] [%]	remaining activity at 5 µM [8] [%]	remaining activity at 5 µM [9] [%]	remaining activity at 10 µM ([1]; 10 uM) [%]	remaining activity at 10 µM ([2]; 10 uM) [%]	remaining activity at 10 µM ([3]; 10 uM) [%]	remaining activity at 10 µM ([4]; 10 uM) [%]	remaining activity at 10 µM ([5]; 10 uM) [%]	remaining activity at 10 µM ([6]; 10 uM) [%]	remaining activity at 10 µM ([7]; 10 uM) [%]	remaining activity at 10 µM ([8]; 10 uM) [%]	remaining activity at 10 µM ([9]; 10 uM) [%]
O=C(Nc1cnn(-c2csc(C(=O)NC3COC3)c2)c1)Nc1ccccc1Cl [Compound 17, 4-(4-(3-(2-chlorophenyl)ureido)-1H-pyrazol-1-yl)-N-(oxetan-3-yl)thiophene-2-carboxamide]	95.6	85.2	105	97.1	87	89.8	92.1	101	99.3	–	–	–	–	–	–	–	–	–
Cc1sc(C(=O)NC2COC2)cc1-n1cc(NC(=O)Nc2c(F)cccc2Cl)cn1 [Compound 27, 4-(4-(3-(2-chloro-6-fluorophenyl)ureido)-1H-pyrazol-1-yl)-5-methyl-N-(oxetan-3-yl)thiophene-2-carboxamide]	–	–	–	–	–	–	–	–	–	114	109	90.2	112	105	76.7	103	73	107
O=C(Nc1cnn(-c2csc(C(=O)NC3COC3)c2)c1)Nc1c(F)cccc1Cl [Compound 25, 4-(4-(3-(2-chloro-6-fluorophenyl)ureido)-1H-pyrazol-1-yl)-N-(oxetan-3-yl)thiophene-2-carboxamide]	94	91.7	95.3	89	82.8	90.8	92.9	79.9	96.6	–	–	–	–	–	–	–	–	–

Source: patent US20240246942A1, “KINASE INHIBITORS FOR THE TREATMENT OF NEURODEGENERATIVE DISEASES” (priority 2020, published 2024)
